Measurements published in article PMC10454913, “Neurohypophysial and paracrine vasopressinergic signaling regulates aquaporin trafficking to hydrate marine teleost oocytes” (Frontiers in Endocrinology, 2023).
Bridge positions count the residues as written; N and C are the ends. Ends that are not written are not given here.

Experiments:
[1] = system: seabream postvitellogenic ovarian explants; experiment: Avp production by ovarian explants in vitro (Avp ELISA); type: cell-based, gilthead seabream (Sparus aurata)
Text: These observations would be compatible with a role of Avp regulating the intracellular trafficking of Aqp1ab1 and Aqp1ab2 in maturing oocytes, as observed in surrogate amphibian oocytes. […] To test this hypothesis, we carried out in vitro experiments in which the production of Avp by postvitellogenic ovarian explants in response to piscine single-chain recombinant […] evaluated by a custom made Avp enzyme-linked immunosorbent assay (ELISA) ( Supplementary Figure S3 ). To investigate the specificity of the rLh potential regulation, in these experiments we also tested the effect of single-chain recombinant follicle-stimulating hormone (rFsh). […] Pieces of the ovary at the […] stage (400-500 mg) were dissected from naturally spawning seabream females and placed in Petri dishes containing 75% Leivovitz L-15 culture medium with L-glutamine and 100 μg/ml gentamicin at pH 7.5. […] Control groups were treated with an equivalent volume of the cell culture medium used for […] production, or with 0.5% ethanol. After incubation, explants were frozen and stored at -80°C until Avp extraction and determination by ELISA. To determine the Avp levels in ovarian explants incubated in vitro, a competitive ELISA was developed using the specific anti-Avp antiserum and the synthetic Avp to create the standard curve ( Supplementary Figure S3 ). For this, polystyrene ELISA microtiter plates (F96 Maxisorp Nunc Immuno Plates; […] Ovarian explants were homogenized on ice with a glass dounce tissue homogenizer in water containing 0.25% glacial acetic acid in a proportion of 500 μl/100 mg tissue. After incubation of the homogenate at 100°C for 5 min, the samples were centrifuged a 10,000 × g for 5 min at 4°C, and the supernatant recovered in a new tube. […] Absorbance was read at 450 nm with a VICTOR3TM Multilabel Plate Reader (PerkinElmer, Inc.). […] The intra-assay coefficient of variation was 4.64% (calculated by assaying eight replicates of an ovarian sample at 50% of maximum binding on the same plate), whereas the inter-assay coefficient of variation was 8.35%.

[2] = system: X. laevis oocytes expressing the seabream Avpr1aa and Aqp1aa, Aqp1ab1 or Aqp1ab2 plus YwhazLb; experiment: Swelling assay (osmotic water permeability, P f) of X. laevis oocytes expressing Avpr1aa and TSA1C aquaporins; type: cell-based
[3] = system: X. laevis oocytes expressing the seabream Avpr2aa and Aqp1aa, Aqp1ab1 or Aqp1ab2 plus YwhazLb; experiment: Swelling assay (osmotic water permeability, P f) of X. laevis oocytes expressing Avpr2aa and TSA1C aquaporins; type: cell-based
[4] = system: seabream ovarian follicles; experiment: In vitro incubation of isolated seabream ovarian follicles (immunostaining, 3H2O uptake, co-immunoprecipitation); type: cell-based, gilthead seabream (Sparus aurata); conditions: for Avp-mediated increase in phosphorylation of Aqp1ab1 and Aqp1ab2 and binding of Aqp1ab2 to YwhazLb: 10 µM inhibitor plus 10 µM Avp; for Avp-induced differential localization of Aqp1ab1 and Aqp1ab2 in the oocyte microvilli: 10 µM inhibitor preincubated prior to 10 µM Avp
Method: To investigate the physiological significance of the Avp regulation of the […] channel trafficking in seabream oocytes, we determined the dynamics of the subcellular localization of endogenous Aqp1aa, Aqp1ab1, and Aqp1ab2, and their interactions with YwhazLa and -zLb proteins, after Avp treatment in vitro, using the Aqp1ab1- and Aqp1ab2-specific antisera and commercial mammalian YWHAZ antibodies specific for seabream YwhazLa/b or -zLb ([12]). For this, we incubated isolated seabream vitellogenic ovarian follicles with Avp, in the presence or absence of the seabream Avpr1aa and Avpr2aa antagonist TLV or the PKA inhibitor H89, while control follicles were exposed to DMSO vehicle alone ( Figure 8 ).
In other experiments, groups of fully-grown postvitellogenic ovarian follicles (n = 10), manually isolated from the ovary, were incubated with 10 µM Avp in the same culture medium as above, in the presence or absence of 10 µM of the receptor antagonist TLV, or with 0.1% DMSO (controls) for 6 h at 18°C. After incubation, follicles were fixed for immunofluorescence microscopy, frozen in liquid nitrogen and stored at -80°C for further protein extraction, or processed for water uptake assays using radiolabeled water as previously described ([12]).
Isolated ovarian follicles were processed for immunofluorescence microscopy as previously described ([65], [66]). Control sections were incubated with antibodies (1:400 dilution) preadsorbed with the corresponding peptides used for immunization (for aquaporin antibodies), or with the Avp or Oxt synthetic peptides. Secondary antibodies were sheep anti-rabbit IgG Cy3 (Merck #C2306) or goat anti-chicken IgY Alexa Fluor 488 (Invitrogen #A11039) at a 1:1,000 dilution. Sections were counterstained with DAPI (1:10,000), and mounted with Fluoromount™ Aqueous Mounting Medium (Merck #F4680). Immunofluorescence was observed and documented with a Zeiss Axio Imager Z1/Apotome fluorescent microscope (Carl Zeiss Corp.). Changes in Aqp1ab1 and Aqp1ab2 in the oocyte plasma membrane after Avp treatment were evaluated using the ImageJ software v.1.52o (https://imagej.nih.gov/ij/) as previously described ([12]).
X. laevis oocytes and seabream follicles (n = 10) were homogenized in the lysis buffer from the Pierce™ Crosslink Magnetic IP/Co-IP Kit (Pierce Thermo Fisher Scientific, #88805) with a bouncer on ice, and centrifuged at 14,000 × g for 1 min. An aliquot (10%) of the protein extract was collected as “input” and mixed with 2 × Laemmli sample buffer, whereas the remaining extract was incubated overnight at 4°C under constant agitation with magnetic beads previously coated with anti-Aqp1ab1 or anti-Aqp1ab2 antibodies. For rabbit primary antibodies, the immunoprecipitation was carried out using the kit indicated above, and final eluted proteins in 50 µl of elution buffer were mixed with 4 × Laemmli sample buffer supplemented with protease and phosphatase inhibitors. For chicken antibodies, the immunoprecipitation was performed using Dynabeads™ M-280 Tosylactivated (Invitrogen Thermo Fisher Scientific, #14203) following the manufacturer’s instructions. The input and immunoprecipitated samples were immunoblotted as indicated above.

[5] = system: seabream Avpr2aa; experiment: Activation of seabream Avpr2aa in transfected HEK293T cells (pCRE-luc / pSRE-luc reporters, Fluo-4 AM Ca2+); type: cell-based, gilthead seabream (Sparus aurata); conditions: for effect on Avpr2aa activation: antagonist 10^-12 to 10^-5 M before 10^-8 M Avp
[6] = target: seabream Oxtrb (Sparus aurata, UniProt R9WVY7); experiment: Activation of seabream Oxtrb in transfected HEK293T cells (pCRE-luc / pSRE-luc reporters, Fluo-4 AM Ca2+); type: cell-based, gilthead seabream (Sparus aurata); conditions: for effect on Oxtrb activation: antagonist 10^-12 to 10^-5 M before 10^-8 M Oxt
[7] = target: seabream Avpr1aa (Sparus aurata, UniProt R9X0I6); experiment: Activation of seabream Avpr1aa in transfected HEK293T cells (pCRE-luc / pSRE-luc reporters, Fluo-4 AM Ca2+); type: cell-based, gilthead seabream (Sparus aurata); conditions: for IC50: antagonist 1 h before 10^-8 M Avp, HEK293T, read-out: IC50, inhibition of Avpr1aa activation
[8] = target: seabream arginine vasopressin receptor Avpr1aa (gilthead seabream (Sparus aurata))
[9] = target: seabream arginine vasopressin receptor Avpr1aa (gilthead seabream (Sparus aurata)); remark: listed apart in the source
[10] = target: seabream oxytocin receptor Oxtrb (gilthead seabream (Sparus aurata))
[11] = 10 µM Avp, co-immunoprecipitation and immunoblotting

C[C@@H](O)[C@@]1(O)CC[C@H]2[C@@H]3CCC4=CC(=O)CC[C@]4(C)[C@H]3CC[C@@]21C [17,20β-P, 17α,20β-dihydroxypregn-4-en-3-one]
increase in Avp synthesis in ovarian explants ([1]; 0.1 µg/ml, ~20 h): 3 fold

CN1CCCC1CCn1cc(C2=C(c3c[nH]c4ccccc34)C(=O)NC2=O)c2ccccc21 (centres unmarked) [Bim-II, bisindolylmaleimide II]
Avp-induced inhibition of P f ([2]; Avpr1aa+Aqp1aa oocytes preincubated with 10 µM inhibitor 1 h before 10 µM Avp): prevented

O=S(=O)(NCCNC/C=C/c1ccc(Br)cc1)c1cccc2cnccc12 [H89]
positive effect of Avp on plasma membrane trafficking of wild-type Aqp1ab1 and Aqp1ab1-S156A [3]: equally abolished | Avp-induced insertion of Aqp1ab1 or Aqp1ab2 into the oocyte plasma membrane / P f increase ([3]; Avpr2aa oocytes, 10 µM inhibitor 1 h before 10 µM Avp): prevented | Avp-mediated increase in phosphorylation of Aqp1ab1 and Aqp1ab2 and binding of Aqp1ab2 to YwhazLb [4]: blocked | Avp-induced differential localization of Aqp1ab1 and Aqp1ab2 in the oocyte microvilli [4]: prevented | water permeability of follicles (3H2O uptake) in the presence of Avp plus inhibitor ([4]; not told): reduced

COc1cc(OC2CCN(C(C)=O)CC2)ccc1C(=O)N1CCC(N2C(=O)OCc3ccccc32)CC1 [L-371,257, 1-(1-[4-[(N-acetyl-4-piperidinyl)oxy]-2-methoxybenzoyl]piperidin-4-yl)-4H-3,1-benzoxazin-2(1H)-one]
effect on Avpr2aa activation [5]: no effect

C=C[C@]12CCC(=O)C=C1CC[C@H]1[C@@H]3CC[C@H](C(C)=O)[C@@]3(C)CC[C@@H]12 [OD 02-0, 10-ethenyl-19-norprogesterone]
Avp synthesis in ovarian explants in the absence of 17,20β-P ([1]; 10 µM, ~20 h): not reproduced

CC#C[C@]1(O)CC[C@H]2[C@@H]3CCC4=CC(=O)CCC4=C3[C@@H](c3ccc(N(C)C)cc3)C[C@@]21C [RU486]
17,20β-P-induced increase in Avp synthesis ([1]; 100 µM inhibitor with 0.1 µg/ml 17,20β-P): completely abolished

COc1ccc(S(=O)(=O)N2c3ccc(Cl)cc3[C@](O)(c3ccccc3Cl)[C@@H]2C(=O)N2CCC[C@H]2C(N)=O)cc1OC [SR49059]
effect on Oxtrb activation [6]: not affected | effect on Avpr2aa activation [5]: inhibited | IC50 [7]: ~1 nM

Cc1ccccc1C(=O)Nc1ccc(C(=O)N2CCCC(O)c3cc(Cl)ccc32)c(C)c1 (centres unmarked) [TLV, 7-Chloro-5-hydroxy-1-[2-methyl-4-(2-methylbenzoyl-amino)benzoyl]-2,3,4,5-tetrahydro-1H-1-benzazepine]
effect on Oxtrb activation [6]: not affected | effect on Avpr2aa activation [5]: inhibited | potency at blocking Avpr2aa relative to SR49059 ([5]; antagonist before 10^-8 M Avp): ~ 10 times more potent | water permeability of follicles (3H2O uptake) in the presence of Avp plus inhibitor ([4]; 10 µM Avp plus 10 µM inhibitor): reduced | Avp-mediated increase in phosphorylation of Aqp1ab1 and Aqp1ab2 and binding of Aqp1ab2 to YwhazLb [4]: blocked | Avp-induced differential localization of Aqp1ab1 and Aqp1ab2 in the oocyte microvilli [4]: prevented | IC50 [7]: ~1 nM

CYIQNCPRG-NH2 (ends and bridges not checked) [Avp]
reduction of P f ([2]; oocytes expressing Avpr1aa + Aqp1aa, 10 µM Avp, 3 h): 80% | oocyte P f triggered by FSK exposure ([2]; oocytes expressing Avpr1aa + Aqp1ab2 (+YwhazLb), 10 µM Avp, 10 µM FSK): did not affect | intracellular Ca2+ concentration ([Ca2+]i) ([6]; HEK293T cells expressing Oxtrb, Fluo-4 AM): only a slight increase | P f ([3]; oocytes co-expressing Avpr2aa and Aqp1aa, 10 µM Avp): did not change | increase in P f ([3]; oocytes expressing Avpr2aa + Aqp1ab1, 10 µM Avp): ~ 2 fold | increase in P f ([3]; oocytes expressing Avpr2aa + Aqp1ab2+YwhazLb, without FSK pretreatment, 10 µM Avp): ~ 4 fold | EC50 ([5]; Avp on Avpr2aa, HEK293T, read-out: approximate EC50 on cognate receptor): ~10 nM | PKC activation (pSRE-luc) ([5]; HEK293T cells expressing Avpr2aa): not activated | pCRE-induced luciferase activity (cAMP) ([5]; HEK293T cells expressing Avpr2aa, 10^-12 to 10^-5 M): potent dose-dependent response | intracellular Ca2+ concentration ([Ca2+]i) ([5]; HEK293T cells expressing Avpr2aa, Fluo-4 AM): not affected | meiotic maturation or oocyte hydration ([4]; 10 µM Avp, 6 h, 18°C): did not induce | phosphorylation of Aqp1ab1 [4, 11]: more phosphorylated | phosphorylation of Aqp1ab2 [4, 11]: increased | localization of Aqp1aa (follicular epithelium) ([4]; 10 µM Avp, immunofluorescence): did not appear to change | localization of Aqp1ab1 immunoreactivity ([4]; 10 µM Avp, immunofluorescence): more concentrated in the most distal part of the microvilli | localization of Aqp1ab2 channel ([4]; 10 µM Avp, immunofluorescence): localized in a more basal region of the microvilli | water permeability of follicles (3H2O uptake) ([4]; not told): higher | pCRE-mediated luciferase activity (cAMP) ([7]; HEK293T cells expressing Avpr1aa): did not induce measurable increases | pSRE-induced luciferase activity (PKC activation) ([7]; HEK293T cells expressing Avpr1aa, 10^-12 to 10^-5 M, 3 h): concentration-dependent increase | intracellular Ca2+ concentration ([Ca2+]i) ([7]; HEK293T cells expressing Avpr1aa, Fluo-4 AM): concentration-dependent increase

B1: arginine vasopressin (Avp, formerly vasotocin), synthetic nonapeptide (peptide)
peptide: CYIQNCPRG-NH2
modifications: disulfide 1-6; ends not checked
EC50 of PKC (pSRE-luciferase) activation and [Ca2+]i increase in HEK293T cells, Avp on Avpr1aa against Oxt on Oxtrb ([8]; scale: fold): 10 | EC50 of receptor activation (pSRE-luciferase activity and [Ca2+]i) in HEK293T cells expressing Avpr1aa, Avp 10^-12 to 10^-5 M [9]: 1e-08 M

B2: oxytocin (Oxt, formerly isotocin), synthetic nonapeptide (peptide)
peptide: CYISNCPIG-NH2
modifications: disulfide 1-6; ends not checked
EC50 of cross-activation of Avpr1aa by Oxt in HEK293T cells (Figure 4D), against that of Avp (fold (EC50 of Oxt over EC50 of Avp)) [8]: 10 | EC50 of receptor activation (pSRE-luciferase activity and [Ca2+]i) in HEK293T cells expressing Oxtrb, Oxt 10^-12 to 10^-5 M [10]: 1e-08 M
